Results published in patent publication US8591877B2, “Cellulose-based nanoparticles for drug delivery” (Ontario Institute for Cancer Research, priority 2011, dated 2013).
pIC50: −log10 of the molar value. Where two headings read alike, the source gives them in different places.

Key:
[1] = tested on: PAN02 cells (murine pancreatic cancer); assay: Intraperitoneal tumor model study, PAN02; format: in vivo, C57/BL6 mice; details: PAN02 i.p. model
From the text: (§1) Female BALB/c and C57/BL6 mice (aged 6 weeks, 18-20 g) were purchased from The Jackson Laboratory (Bar Harbor, Me.). All experimental protocols in this study were approved by the Animal Care Committee of the University Health Network (Toronto, Ontario, Canada) in accordance with the policies established in the Guide to the Care and Use of Experimental Animals prepared by the Canadian Council of Animal Care. For each study, the DTX was formulated in a Tween80/ethanol/saline (20:13:67) solution (4 mg DTX/mL), and sterile filtered. The Cellax particles were adjusted to 4, 7.5 or 15 mg DTX/mL in saline and sterile filtered.
PAN02 cells (murine pancreatic cancer) were cultured in RPMI 1640 supplemented with 10% FBS (Invitrogen), penicillin (100 U/ml) and streptomycin (100 μg/ml) (Invitrogen), and pyruvate (1 mM). Prior to inoculation, the cells were lifted from the culture plates with TrypLE Express (Invitrogen), and re-suspended in supplement free (no FBS, no antibiotics) RPMI media. The PAN02 cells (5×10^6 cells/mL, 0.5 mL) were injected into the intraperitoneal space of C57/BL6 mice. One day post-administration of the cells, the mice (n=3 per group) were treated with DTX (40 mg/kg), Cellax (40 mg DTX eqv/kg), or saline. Mice were sacrificed when >20% body weight loss was recorded, or at the first signs of behavioral or mobility dysfunction.

[2] = doses of 210, 150, 300, and 233 mg/m^2 for PTX, NK105, Genexol, Opaxio respectively; cited from earlier work
[3] = tested on: LL/2 flank tumors; assay: Subcutaneous flank tumor study, LL/2; format: in vivo
[4] = Maximum tolerated dose (MTD) study in healthy mice; details: female, BALB/c, mouse, in vivo, iv; single i.v. dose, limit <5% body weight loss; read-out: MTD for docetaxel in mice
From the text: as §1
Tissues from mice (organs, bones, and tumors) were rinsed with saline and fixed in 10% formalin for 2 days, followed by storage in 70% ethanol. Preparation of tissues into slides was performed at the Toronto General Hospital Pathology Research Program lab (Toronto, ON). […] Prepared slides were analyzed on an Aperio Scanner at the Advanced Optical Microscopy Facility (AOMF) at the Princess Margaret Hospital (Toronto, ON). […] For TUNEL, Ki67, and CD31 stained samples, brown pixels were counted with the ImageScope Positive Pixel Count algorithm. For each tumor or organ analyzed, three tissue sections were each divided into three equal regions, generating n=9 data points. Image analysis output were positive pixel counts divided by the area analyzed. […]

[5] = tested on: EMT-6 murine mammary carcinoma cells; assay: In vitro cytotoxicity (IC50 analysis), XTT assay; format: cell-based; details: Mus musculus, EMT-6 (mammary)
Method: (§2) EMT-6 murine mammary carcinoma cells and LL/2 murine Lewis lung cell carcinoma cells were cultured in DMEM media (Invitrogen) with high glucose, supplemented with 10% FBS (Invitrogen), penicillin (100 U/ml) and streptomycin (100 μg/ml) (Invitrogen). The mouse mammary carcinoma cell line EMT-6 was a generous gift from Dr. David Stojdl at the CHEO Research Institute and Dr. Douglas Mahoney at the University of Ottawa. For plating, cells were released from the culture flask with trypsin (Invitrogen), resuspended at a concentration of 1×10^5 cell/mL, and 100 uL of cell suspension was added to the wells of 96 well polystyrene plate. The cells were maintained for 24 hours in culture (37° C., 5% CO2, humidified) before addition of particles. DTX solutions were made up in DMSO and diluted with media to form a 100 nM stock solution with 0.1% DMSO content. These DTX samples were 2× serially diluted with 0.1% DMSO media. Cellax particles were assayed for DTX content, and 10× serially diluted with media. The cultures were maintained for three days, at which time cell viability was assayed by the XTT assay. Briefly, a 1 mg/mL solution of XTT reagent (Sigma) in water was prepared, and phenazine (Sigma) was added just before analysis ([…]). The culture plates were incubated for two hours at 37° C., and absorbance of each well at 480 nm was then read. Wells treated with media (or 0.1% DMSO media) represent 100% viable cultures, and wells containing no cells represent background signal. In a parallel experiment, the DTX or Cellax-containing media were added to the EMT-6 and LL/2 cultures in four steps, with addition of ¼ the dose every 12 hours for two days. The data was analyzed in GraphPad Prism, and the IC50 for each system was calculated.

[6] = tested on: LL/2 murine Lewis lung cell carcinoma cells; assay: In vitro cytotoxicity (IC50 analysis), XTT assay; format: cell-based; details: Mus musculus, LL/2 (lung)
Method: as §2

[7] = tested on: EMT-6 cells (i.v. inoculated); assay: Metastatic tumor study, i.v. EMT-6 cells; format: in vivo, BALB/c mice
From the text: as §1
Healthy BALB/c mice received an i.v. dose of EMT-6 cells (in supplement free DMEM media) via tail vein injection (50 uL, 2.5×10^5 cell/mL), and one day following received a dose of Cellax (40 mg DTX/kg), 40 mg/kg DTX, or saline (n=10/group). A second dose (20 mg/kg DTX) was administered on day 7 post-cell injection. Mice were sacrificed when >20% body weight loss was recorded, or at the first signs of behavioral or mobility dysfunction. The lungs, heart, liver, kidneys, spleen, femurs, and brain were harvested for histological analysis. A Kaplan Meier plot of survival probability was generated from the survival data.

[8] = tested on: EMT-6 flank tumors; assay: Subcutaneous flank tumor study, EMT-6; format: in vivo
From the text: as §1
Tissues from mice (organs, bones, and tumors) were rinsed with saline and fixed in 10% formalin for 2 days, followed by storage in 70% ethanol. […] Prepared slides were analyzed on an Aperio Scanner at the Advanced Optical Microscopy Facility (AOMF) at the Princess Margaret Hospital (Toronto, ON). […] For TUNEL, Ki67, and CD31 stained samples, brown pixels were counted with the ImageScope Positive Pixel Count algorithm. For each tumor or organ analyzed, three tissue sections were each divided into three equal regions, generating n=9 data points. Image analysis output were positive pixel counts divided by the area analyzed.
EMT-6 cells were cultured as described previously. […] The tumor size was measured by a caliper, and body weight was monitored. […]

In the case of `Nc1ccn([C@@H]2O[C@H](CO)[C@@H](O)C2(F)F)c(=O)n1` [gemcitabine], the benefit of treatment ([1]; 120 mg/kg) was “did not confer significantly increased benefits”.
For `CC(=O)O[C@H]1C(=O)[C@@]2(C)[C@H]([C@H](OC(=O)c3ccccc3)[C@]3(O)C[C@H](OC(=O)[C@H](O)[C@@H](NC(=O)c4ccccc4)c4ccccc4)C(C)=C1C3(C)C)[C@]1(OC(C)=O)CO[C@@H]1C[C@@H]2O` [PTX, paclitaxel], the half life [2] is given as 13.3 h.
With `CC(=O)O[C@@]12CO[C@@H]1C[C@H](O)[C@@]1(C)C(=O)[C@H](O)C3=C(C)[C@@H](OC(=O)[C@H](O)[C@@H](NC(=O)OC(C)(C)C)c4ccccc4)C[C@@](O)([C@@H](OC(=O)c4ccccc4)[C@H]21)C3(C)C` [DTX, Docetaxel] the “effect on tumor growth” value ([3]; LL/2 flank model, single dose 40 mg/kg DTX (eqv)) was “did not alter tumor growth characteristics”, the “tumor histology: necrosis (H&E) and TUNEL staining” value ([3]; LL/2 tumors) was “positive TUNEL staining was minimal” and the MTD at 7 days [4] was 40 mg/kg. The IC50 ([5]; EMT6, 48 h, dose in four parts over two days, read-out: IC50 DTX (nM) Metronomic) was 6 nM, the pIC50 ([5]; EMT6, single (bolus) dose, XTT, Cellax as DTX content, read-out: IC50) was 7.10 and the IC50 ([6]; 48 h, dose in four parts over two days, read-out: IC50 DTX (nM) Metronomic) was 12 nM. For the same molecule, the pIC50 ([6]; single (bolus) dose, XTT, Cellax as DTX content, read-out: IC50) was 6.12, the median survival time ([7]; 40 mg/kg day 1, 20 mg/kg day 7, n=10/group) was 9 days and the “onset of weight loss” value ([7]; metastatic EMT-6 model, 40 mg/kg) was 6 days. The “signs of disease stress: parelsis (leg movements), piloerection” value ([7]; metastatic EMT-6 model, mice affected per group of 10) was 4/10, the survival ([1]; 40 mg/kg) was “survival was significantly extended” and the “weight loss or disease symptoms” value ([1]; 40 mg/kg (DTX eqv), n=3 per group) was “did not exhibit signs of weight loss or disease symptoms”. For the same molecule, the “effect on tumor growth” value ([8]; EMT-6 flank model, single dose 40 mg/kg DTX (eqv), Cellax p<0.001 vs controls, p<0.05 vs DTX) was “minor (not significant) effect on tumour growth” and the “tumor histology: apoptosis (TUNEL), cell replication (Ki67), angiogenesis (CD31)” value ([8]; EMT-6 tumors, 40 mg/kg, compared to DTX treated tumors and controls) was “caused necrosis/apoptosis”.
